Measured values taken from ChEMBL document CHEMBL5120793, “A Natural Plant Ingredient, Menthone, Regulates T Cell Subtypes and Lowers Pro-inflammatory Cytokines of Rheumatoid Arthritis” (J Nat Prod, 2022).
The source made the active and inactive calls.

Key:
Mus musculus [1] = test: Antiarthritic activity against collagen-II induced rheumatoid arthritis DBA-1 mouse blood CD4+ T cells assessed as increase in GATA3 mRNA level at 100 mg/kg administered for 14 days on day 60 to day 74 post-immunization by RT-qPCR assay; assay type: functional, organism-based; conditions: T-cell, time 14.0 day
Mus musculus [2] = test: Antiarthritic activity against collagen-II induced rheumatoid arthritis DBA-1 mouse blood CD4+ T cells assessed as reduction in T-bet mRNA level at 100 mg/kg administered for 14 days on day 60 to day 74 post-immunization by RT-qPCR assay; assay type: functional, organism-based; conditions: T-cell, time 14.0 day
Mus musculus [3] = test: Antiarthritic activity against collagen-II induced rheumatoid arthritis DBA-1 mouse blood CD4+ T cells assessed as increase in Foxp3 mRNA level at 100 mg/kg administered for 14 days on day 60 to day 74 post-immunization by RT-qPCR assay; assay type: functional, organism-based; conditions: T-cell, time 14.0 day
Mus musculus [4] = test: Antiarthritic activity against collagen-II induced rheumatoid arthritis DBA-1 mouse spleen CD4+ T cells assessed as reduction in RORgammaT mRNA level at 100 mg/kg administered for 14 days on day 60 to day 74 post-immunization by RT-qPCR assay; assay type: functional, organism-based; conditions: T-cell, time 14.0 day
Mus musculus [5] = test: Antiarthritic activity against collagen-II induced rheumatoid arthritis DBA-1 mouse spleen CD4+ T cells assessed as increase in Foxp3 mRNA level at 100 mg/kg administered for 14 days on day 60 to day 74 post-immunization by RT-qPCR assay; assay type: functional, organism-based; conditions: T-cell, time 14.0 day
Mus musculus [6] = test: Antiarthritic activity against collagen-II induced rheumatoid arthritis DBA-1 mouse model assessed as reduction in IL-1beta protein level at 100 mg/kg administered for 14 days on day 60 to day 74 post-immunization by immunohistochemistry analysis; assay type: functional, organism-based; conditions: time 14.0 day
Mus musculus [7] = test: Antiarthritic activity against collagen-II induced rheumatoid arthritis DBA-1 mouse model assessed as reduction in damage of articular cartilage at 100 mg/kg administered for 14 days on day 60 to day 74 post-immunization; assay type: functional, organism-based; conditions: time 14.0 day
Mus musculus [8] = test: Antiarthritic activity against collagen-II induced rheumatoid arthritis DBA-1 mouse spleen CD4+ T cells assessed as reduction in Th17 cells differentiation at 100 mg/kg administered for 14 days on day 60 to day 74 post-immunization by flow cytometry analysis; assay type: functional, organism-based; conditions: T-cell, time 14.0 day
CD4+ve Th [9] = test: Antiinflammatory activity against PMA induced DBA-1 mouse spleen CD4+ve Th cells assessed as reduction in IL-6 mRNA level at 50 to 100 uM incubated for 24 hrs by RT-qPCR assay; assay type: functional, cell-based; conditions: dose 50-100 µM
Mus musculus [10] = test: Antiarthritic activity against collagen-II induced rheumatoid arthritis DBA-1 mouse model assessed as reduction in serum IL-1beta level at 100 mg/kg administered for 14 days on day 60 to day 74 post-immunization by ELISA; assay type: functional, organism-based; conditions: time 14.0 day
Mus musculus [11] = test: Antiarthritic activity against collagen-II induced rheumatoid arthritis DBA-1 mouse blood CD4+ T cells assessed as reduction in RORgammaT mRNA level at 100 mg/kg administered for 14 days on day 60 to day 74 post-immunization by RT-qPCR assay; assay type: functional, organism-based; conditions: T-cell, time 14.0 day
Mus musculus [12] = test: Antiarthritic activity against collagen-II induced rheumatoid arthritis DBA-1 mouse model assessed as reduction in blood IL-1beta mRNA level at 100 mg/kg administered for 14 days on day 60 to day 74 post-immunization by RT-qPCR assay; assay type: functional, organism-based; conditions: time 14.0 day
CD4+ve Th [13] = test: Antiinflammatory activity against PMA induced DBA-1 mouse spleen CD4+ve Th cells assessed as reduction in IL-1beta mRNA level at 50 to 100 uM incubated for 24 hrs by RT-qPCR assay; assay type: functional, cell-based; conditions: dose 50-100 µM
Mus musculus [14] = test: Antiarthritic activity against collagen-II induced rheumatoid arthritis DBA-1 mouse blood CD4+ T cells assessed as reduction in Th1 cells differentiation at 100 mg/kg administered for 14 days on day 60 to day 74 post-immunization by flow cytometry analysis; assay type: functional, organism-based; conditions: T-cell, time 14.0 day
CD4+ve Th [15] = test: Antiinflammatory activity against PMA induced DBA-1 mouse spleen CD4+ve Th cells assessed as reduction in TNF-alpha mRNA level at 50 to 100 uM incubated for 24 hrs by RT-qPCR assay; assay type: functional, cell-based; conditions: dose 50-100 µM
Mus musculus [16] = test: Antiarthritic activity against collagen-II induced rheumatoid arthritis DBA-1 mouse model assessed as reduction in serum IL-6 level at 100 mg/kg administered for 14 days on day 60 to day 74 post-immunization by ELISA; assay type: functional, organism-based; conditions: time 14.0 day
Mus musculus [17] = test: Antiarthritic activity against collagen-II induced rheumatoid arthritis DBA-1 mouse model assessed as reduction in blood TNF-alpha mRNA level at 100 mg/kg administered for 14 days on day 60 to day 74 post-immunization by RT-qPCR assay; assay type: functional, organism-based; conditions: time 14.0 day
Mus musculus [18] = test: Antiarthritic activity against collagen-II induced rheumatoid arthritis DBA-1 mouse model assessed as reduction in TNF-alpha protein level at 100 mg/kg administered for 14 days on day 60 to day 74 post-immunization by immunohistochemistry analysis; assay type: functional, organism-based; conditions: time 14.0 day
Mus musculus [19] = test: Antiarthritic activity against collagen-II induced rheumatoid arthritis DBA-1 mouse model assessed as reduction in synovial hyperplasia at 100 mg/kg administered for 14 days on day 60 to day 74 post-immunization; assay type: functional, organism-based; conditions: time 14.0 day
Mus musculus [20] = test: Antiarthritic activity against collagen-II induced rheumatoid arthritis DBA-1 mouse spleen CD4+ T cells assessed as increase in GATA3 mRNA level at 100 mg/kg administered for 14 days on day 60 to day 74 post-immunization by RT-qPCR assay; assay type: functional, organism-based; conditions: T-cell, time 14.0 day
Mus musculus [21] = test: Antiarthritic activity against collagen-II induced rheumatoid arthritis DBA-1 mouse spleen CD4+ T cells assessed as reduction in Th1 cells differentiation at 100 mg/kg administered for 14 days on day 60 to day 74 post-immunization by flow cytometry analysis; assay type: functional, organism-based; conditions: T-cell, time 14.0 day
Mus musculus [22] = test: Antiarthritic activity against collagen-II induced rheumatoid arthritis DBA-1 mouse model assessed as reduction in clinical score at 100 mg/kg administered for 14 days on day 60 to day 74 post-immunization; assay type: functional, organism-based; conditions: time 14.0 day
Mus musculus [23] = test: Antiarthritic activity against collagen-II induced rheumatoid arthritis DBA-1 mouse model assessed as reduction in blood IL-6 mRNA level at 100 mg/kg administered for 14 days on day 60 to day 74 post-immunization by RT-qPCR assay; assay type: functional, organism-based; conditions: time 14.0 day
Mus musculus [24] = test: Antiarthritic activity against collagen-II induced rheumatoid arthritis DBA-1 mouse model assessed as reduction in IL-17 protein level at 100 mg/kg administered for 14 days on day 60 to day 74 post-immunization by immunohistochemistry analysis; assay type: functional, organism-based; conditions: time 14.0 day
Mus musculus [25] = test: Antiarthritic activity against collagen-II induced rheumatoid arthritis DBA-1 mouse blood CD4+ T cells assessed as reduction in Th17 cells differentiation at 100 mg/kg administered for 14 days on day 60 to day 74 post-immunization by flow cytometry analysis; assay type: functional, organism-based; conditions: T-cell, time 14.0 day
Mus musculus [26] = test: Antiarthritic activity against collagen-II induced rheumatoid arthritis DBA-1 mouse spleen CD4+ T cells assessed as reduction in T-bet mRNA level at 100 mg/kg administered for 14 days on day 60 to day 74 post-immunization by RT-qPCR assay; assay type: functional, organism-based; conditions: T-cell, time 14.0 day
Mus musculus [27] = test: Antiarthritic activity against collagen-II induced rheumatoid arthritis DBA-1 mouse model assessed as reduction in serum TNF-alpha level at 100 mg/kg administered for 14 days on day 60 to day 74 post-immunization by ELISA; assay type: functional, organism-based; conditions: time 14.0 day

Measured: Activity

CC(C)[C@@H]1CC[C@@H](C)CC1=O
active: Mus musculus [1] | Mus musculus [2] | Mus musculus [3] | Mus musculus [4] | Mus musculus [5] | Mus musculus [6] | Mus musculus [7] | Mus musculus [8] | CD4+ve Th [9] | Mus musculus [10] | Mus musculus [11] | Mus musculus [12] | CD4+ve Th [13] | Mus musculus [14] | CD4+ve Th [15] | Mus musculus [16] | Mus musculus [17] | Mus musculus [18] | Mus musculus [19] | Mus musculus [20] | Mus musculus [21] | Mus musculus [22] | Mus musculus [23] | Mus musculus [24] | Mus musculus [25] | Mus musculus [26] | Mus musculus [27]
